Laboratory results published in patent US9932340B2, “Substituted indoles” (AbbVie Inc., priority 2014, dated 2018).

Biological target: SUV420H1 enzyme (Homo sapiens, UniProt Q4FZB7)
Experiment: TR-FRET SAH SUV420H1 enzyme inhibition assay
Assay type: biochemical
Conditions: Histone Peptide H4(8-30)me1 and SAM, overnight at room temp, TR-FRET detection of SAH, read-out: TR-FRET SAH_SUV420H1 IC50
How it was run: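 SUV420H1 (90 nM) preincubated 30 min with compound (3-fold dilutions, 50 to 0.00075 μM), then H4(8-30)me1 peptide 5 nM and SAM 4 nM added, overnight at room temp. SAH product detected by TR-FRET with Tb anti-SAH antibody and Oregon Green-SAH in RIPA buffer, 4 h; IC50 from Hill fit, asymptotes fixed 0-100%.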

SUV420H1 enzyme, sequence (Q4FZB7 whole entry): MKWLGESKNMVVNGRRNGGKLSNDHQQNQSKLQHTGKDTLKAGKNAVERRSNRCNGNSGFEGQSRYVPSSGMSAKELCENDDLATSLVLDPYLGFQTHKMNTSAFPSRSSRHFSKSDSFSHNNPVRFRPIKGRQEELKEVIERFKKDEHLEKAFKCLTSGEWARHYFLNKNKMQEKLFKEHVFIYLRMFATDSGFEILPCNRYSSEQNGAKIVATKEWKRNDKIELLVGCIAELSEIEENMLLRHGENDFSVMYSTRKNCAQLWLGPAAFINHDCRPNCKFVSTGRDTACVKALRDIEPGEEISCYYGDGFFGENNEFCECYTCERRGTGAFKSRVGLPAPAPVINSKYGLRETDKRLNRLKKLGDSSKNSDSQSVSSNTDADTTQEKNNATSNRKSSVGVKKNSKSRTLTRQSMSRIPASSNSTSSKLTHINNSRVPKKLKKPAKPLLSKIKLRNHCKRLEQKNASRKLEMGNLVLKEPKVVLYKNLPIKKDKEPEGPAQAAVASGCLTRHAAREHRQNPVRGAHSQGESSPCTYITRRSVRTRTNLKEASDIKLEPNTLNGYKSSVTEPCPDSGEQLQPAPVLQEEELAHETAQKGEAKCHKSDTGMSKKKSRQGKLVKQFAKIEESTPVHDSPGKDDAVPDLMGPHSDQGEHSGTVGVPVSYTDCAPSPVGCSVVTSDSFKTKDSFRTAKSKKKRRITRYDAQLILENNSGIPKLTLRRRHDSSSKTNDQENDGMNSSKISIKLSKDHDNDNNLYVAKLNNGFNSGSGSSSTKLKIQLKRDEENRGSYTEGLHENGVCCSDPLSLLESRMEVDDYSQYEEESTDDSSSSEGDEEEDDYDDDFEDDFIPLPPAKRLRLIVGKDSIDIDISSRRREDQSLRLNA

First: C=Cc1ccc2cc(CN)[nH]c2c1Cn1cnc2c(N)ncnc21 [Example 59, 9-{[2-(aminomethyl)-6-ethenyl-1H-indol-7-yl]methyl}-9H-purin-6-amine]
Second: C=C(C)c1ccc2cc(CN)[nH]c2c1Cn1cnc2c(N)ncnc21 [Example 60, 9-{[2-(aminomethyl)-6-(prop-1-en-2-yl)-1H-indol-7-yl]methyl}-9H-purin-6-amine]
The IC50 of the first is 5.1-fold lower: 7.51 µM for the first, 38.4 µM for the second. The first is the more potent here.

`COc1ccc(CCC(=O)NCc2cc3cc(Cl)cc(Cn4cnc5c(N)ncnc54)c3[nH]2)cc1` [Example 315, N-({7-[(6-amino-9H-purin-9-yl)methyl]-5-chloro-1H-indol-2-yl}methyl)-3-(4-methoxyphenyl)propanamide] and `COc1ccc(CC(=O)NCc2cc3cc(Cl)cc(Cn4cnc5c(N)ncnc54)c3[nH]2)cc1` [Example 297, N-({7-[(6-amino-9H-purin-9-yl)methyl]-5-chloro-1H-indol-2-yl}methyl)-2-(4-methoxyphenyl)acetamide] are within 1.5-fold of each other in IC50: 4.08 µM for the first, 6.04 µM for the second.

Going from `Nc1ncnc2c1ncn2Cc1cc(Cl)cc2cc(CNC(=O)c3cnc4ccsc4c3)[nH]c12` [Example 337, N-({7-[(6-amino-9H-purin-9-yl)methyl]-5-chloro-1H-indol-2-yl}methyl)thieno[3,2-b]pyridine-6-carboxamide] to `Nc1ncnc2c1ncn2Cc1cc(Cl)cc2cc(CNC(=O)c3ccc4[nH]ncc4c3)[nH]c12` [Example 346, N-({7-[(6-amino-9H-purin-9-yl)methyl]-5-chloro-1H-indol-2-yl}methyl)-1H-indazole-5-carboxamide], the IC50 rises from 0.0985 µM to 4.66 µM (47-fold). The first is the more potent here.

Compared with `CC(C)CCC(=O)NCc1cc2cc(Cl)cc(Cn3cnc4c(N)ncnc43)c2[nH]1` [Example 105, N-({7-[(6-amino-9H-purin-9-yl)methyl]-5-chloro-1H-indol-2-yl}methyl)-4-methylpentanamide], `CC(=O)NCc1cc2cc(Cl)cc(Cn3cnc4c(N)ncnc43)c2[nH]1` [Example 92, N-({7-[(6-amino-9H-purin-9-yl)methyl]-5-chloro-1H-indol-2-yl}methyl)acetamide] is higher in IC50: 8.17 µM for the first, over 50 µM for the second. The first is the more potent here.

`Cc1nnccc1C(=O)NCc1cc2cc(C3=CCNCC3)cc(Cn3cnc4c(N)ncnc43)c2[nH]1` [Example 200, N-({7-[(6-amino-9H-purin-9-yl)methyl]-5-(1,2,3,6-tetrahydropyridin-4-yl)-1H-indol-2-yl}methyl)-3-methylpyridazine-4-carboxamide] and `Cc1noc(C)c1C(=O)NCc1cc2cc(C3=CCCNC3)cc(Cn3cnc4c(N)ncnc43)c2[nH]1` [Example 163, N-({7-[(6-amino-9H-purin-9-yl)methyl]-5-(1,2,5,6-tetrahydropyridin-3-yl)-1H-indol-2-yl}methyl)-3,5-dimethyl-1,2-oxazole-4-carboxamide] are within 1.5-fold of each other in IC50: 0.1 µM for the first, 0.127 µM for the second.

`Cc1nc2c(cnn2C(C)C)cc1C(=O)NCc1cc2cc(Cl)cc(Cn3cnc4c(N)ncnc43)c2[nH]1` [Example 377, N-({7-[(6-amino-9H-purin-9-yl)methyl]-5-chloro-1H-indol-2-yl}methyl)-6-methyl-1-(propan-2-yl)-1H-pyrazolo[3,4-b]pyridine-5-carboxamide] and `Cc1ccc(N)cc1C(=O)NCc1cc2cc(Cl)cc(Cn3cnc4c(N)ncnc43)c2[nH]1` [Example 271, 5-amino-N-({7-[(6-amino-9H-purin-9-yl)methyl]-5-chloro-1H-indol-2-yl}methyl)-2-methylbenzamide] are within 1.5-fold of each other in IC50: 2.71 µM for the first, 2.98 µM for the second.

Compared with `NCc1cc2cc(C3=CCOCC3)cc(Cn3cnc4c(N)ncnc43)c2[nH]1` [Example 12, 9-{[2-(aminomethyl)-5-(3,6-dihydro-2H-pyran-4-yl)-1H-indol-7-yl]methyl}-9H-purin-6-amine], `COc1ccccc1-c1cc(Cn2cnc3c(N)ncnc32)c2[nH]c(CN)cc2c1` [Example 36, 9-{[2-(aminomethyl)-5-(2-methoxyphenyl)-1H-indol-7-yl]methyl}-9H-purin-6-amine] is 7.2-fold higher in IC50: 0.334 µM for the first, 2.41 µM for the second.

`COc1cccc(C(=O)NCc2cc3cc(Cl)cc(Cn4cnc5c(N)ncnc54)c3[nH]2)c1` [Example 259, N-({7-[(6-amino-9H-purin-9-yl)methyl]-5-chloro-1H-indol-2-yl}methyl)-3-methoxybenzamide] and `Nc1ncnc2c1ncn2Cc1cc(Cl)cc2cc(CNC(=O)c3cccc(Cl)c3)[nH]c12` [Example 222, N-({7-[(6-amino-9H-purin-9-yl)methyl]-5-chloro-1H-indol-2-yl}methyl)-3-chlorobenzamide] are within 1.5-fold of each other in IC50: 3.53 µM for the first, 3.54 µM for the second.

`COc1ccccc1-c1ccc(Cn2cnc3c(N)ncnc32)c2[nH]c(CN)cc12` [Example 80, 9-{[2-(aminomethyl)-4-(2-methoxyphenyl)-1H-indol-7-yl]methyl}-9H-purin-6-amine] and `Cc1cccc(-c2ccc(Cn3cnc4c(N)ncnc43)c3[nH]c(CN)cc23)c1` [Example 76, 9-{[2-(aminomethyl)-4-(3-methylphenyl)-1H-indol-7-yl]methyl}-9H-purin-6-amine] are within 1.5-fold of each other in IC50: 1.85 µM for the first, 1.33 µM for the second.

First: Cc1cccc(CNCc2cc3cc(Cl)cc(Cn4cnc5c(N)ncnc54)c3[nH]2)c1F [Example 245, 9-[(5-chloro-2-{[(2-fluoro-3-methylbenzyl)amino]methyl}-1H-indol-7-yl)methyl]-9H-purin-6-amine]
Second: Cc1ccc(CC(=O)NCc2cc3cc(Cl)cc(Cn4cnc5c(N)ncnc54)c3[nH]2)cc1 [Example 292, N-({7-[(6-amino-9H-purin-9-yl)methyl]-5-chloro-1H-indol-2-yl}methyl)-2-(4-methylphenyl)acetamide]
The IC50 of the first is 16-fold lower: 2.03 µM for the first, 32.2 µM for the second. The first is the more potent here.

Going from `Cc1noc(C)c1C(=O)NCc1cc2cc(-c3cccc(C(N)=O)c3)cc(Cn3cnc4c(N)ncnc43)c2[nH]1` [Example 173, N-({7-[(6-amino-9H-purin-9-yl)methyl]-5-(3-carbamoylphenyl)-1H-indol-2-yl}methyl)-3,5-dimethyl-1,2-oxazole-4-carboxamide] to `Cc1cc(C#N)ccc1C(=O)NCc1cc2cc(Cl)cc(Cn3cnc4c(N)ncnc43)c2[nH]1` [Example 303, N-({7-[(6-amino-9H-purin-9-yl)methyl]-5-chloro-1H-indol-2-yl}methyl)-4-cyano-2-methylbenzamide], the IC50 rises from 0.0412 µM to 0.0723 µM (1.8-fold).

`Cn1cc(-c2ccc(Cn3cnc4c(N)ncnc43)c3[nH]c(CN)cc23)cn1` [Example 68, 9-{[2-(aminomethyl)-4-(1-methyl-1H-pyrazol-4-yl)-1H-indol-7-yl]methyl}-9H-purin-6-amine] and `COc1ccc(-c2cc(Cn3cnc4c(N)ncnc43)c3[nH]c(CN)cc3c2)cc1` [Example 34, 9-{[2-(aminomethyl)-5-(4-methoxyphenyl)-1H-indol-7-yl]methyl}-9H-purin-6-amine] are within 1.5-fold of each other in IC50: 0.972 µM for the first, 0.723 µM for the second.

Compared with `Nc1ncnc2c1ncn2Cc1cc(Cl)cc2cc(CNC(=O)CCN3CCCC3)[nH]c12` [Example 122, N-({7-[(6-amino-9H-purin-9-yl)methyl]-5-chloro-1H-indol-2-yl}methyl)-3-(pyrrolidin-1-yl)propanamide], `Nc1ncnc2c1ncn2Cc1cc(Cl)cc2cc(CNC(=O)CC3CCCC3)[nH]c12` [Example 121, N-({7-[(6-amino-9H-purin-9-yl)methyl]-5-chloro-1H-indol-2-yl}methyl)-2-cyclopentylacetamide] is 1.9-fold lower in IC50: 4.77 µM for the first, 2.56 µM for the second.

Compared with `Nc1ncnc2c1ncn2Cc1cc(Cl)cc2cc(CNC(=O)c3ccns3)[nH]c12` [Example 137, N-({7-[(6-amino-9H-purin-9-yl)methyl]-5-chloro-1H-indol-2-yl}methyl)-1,2-thiazole-5-carboxamide], `Nc1ncnc2c1ncn2Cc1cc(Cl)cc2cc(CNC(=O)c3ccc[nH]3)[nH]c12` [Example 146, N-({7-[(6-amino-9H-purin-9-yl)methyl]-5-chloro-1H-indol-2-yl}methyl)-1H-pyrrole-2-carboxamide] is 7-fold higher in IC50: 2.04 µM for the first, 14.2 µM for the second.

`CC1(C(=O)NCc2cc3cc(Cl)cc(Cn4cnc5c(N)ncnc54)c3[nH]2)CCCCC1` [Example 129, N-({7-[(6-amino-9H-purin-9-yl)methyl]-5-chloro-1H-indol-2-yl}methyl)-1-methylcyclohexanecarboxamide] and `Nc1ncnc2c1ncn2Cc1cc(Cl)cc2cc(CNC(=O)C3(O)CCC3)[nH]c12` [Example 112, N-({7-[(6-amino-9H-purin-9-yl)methyl]-5-chloro-1H-indol-2-yl}methyl)-1-hydroxycyclobutanecarboxamide] are within 1.5-fold of each other in IC50: 28.4 µM for the first, 32 µM for the second.

Going from `Cc1nc2cc(C(=O)NCc3cc4cc(Cl)cc(Cn5cnc6c(N)ncnc65)c4[nH]3)ccc2n1CCO` [Example 376, N-({7-[(6-amino-9H-purin-9-yl)methyl]-5-chloro-1H-indol-2-yl}methyl)-1-(2-hydroxyethyl)-2-methyl-1H-benzimidazole-5-carboxamide] to `N#Cc1ccc(C(=O)NCc2cc3cc(Cl)cc(Cn4cnc5c(N)ncnc54)c3[nH]2)c(F)c1` [Example 284, N-({7-[(6-amino-9H-purin-9-yl)methyl]-5-chloro-1H-indol-2-yl}methyl)-4-cyano-2-fluorobenzamide], the IC50 falls from 2.95 µM to 0.0908 µM (32-fold). The second is the more potent here.

Going from `CC(C)(C)OC(=O)CNCc1cc2cc(Cl)cc(Cn3cnc4c(N)ncnc43)c2[nH]1` [Example 106, tert-butyl [({7-[(6-amino-9H-purin-9-yl)methyl]-5-chloro-1H-indol-2-yl}methyl)amino]acetate] to `Nc1ncnc2c1ncn2Cc1cc(Cl)cc2cc(CNC(=O)c3ccccc3N3CCCCC3)[nH]c12` [Example 322, N-({7-[(6-amino-9H-purin-9-yl)methyl]-5-chloro-1H-indol-2-yl}methyl)-2-(piperidin-1-yl)benzamide], the IC50 rises from 3.32 µM to 29.9 µM (9-fold).

Compared with `Nc1ncnc2c1ncn2Cc1cc(Cl)cc2cc(C(N)c3ccccc3)[nH]c12` (stereo not drawn) [Example 194, 9-({2-[amino(phenyl)methyl]-5-chloro-1H-indol-7-yl}methyl)-9H-purin-6-amine], `N#Cc1ccc(C(=O)NCc2cc3c(Cl)ccc(Cn4cnc5c(N)ncnc54)c3[nH]2)c(Cl)c1` [Example 282, N-({7-[(6-amino-9H-purin-9-yl)methyl]-4-chloro-1H-indol-2-yl}methyl)-2-chloro-4-cyanobenzamide] is 27-fold lower in IC50: 1.95 µM for the first, 0.0723 µM for the second.
